# Assays:
# Format in all cases: cell-based
# CFTR-S549N = target: T1, CFTR-S549N (Homo sapiens, UniProt P13569, S549N); assay: YFP-halide influx assay for the CFTR-S549N; conditions: CFTR-S549N mutant; read-out: EC50 measured by YFP-halide influx assay for the CFTR-S549N
# T1 construct: expressed in transfected cells
# Text: (§1) The YFP halide influx assay measures the functionality of the cystic fibrosis Transmembrane Conductance regulator (CFTR) channels. The assay is used to evaluate the capacity of compounds to increase the channel opening of existing mutant CFTR channels in the membrane. It makes use of the observation that the yellow fluorescent protein (YFP) variant YFP H148Q, I152L, F47L has its fluorescence substantially quenched by halide ions like Cl^− and I^−. (Galietta et al., 2001)
# (§2) For this purpose, HEK293-cells are seeded in 96 well plates. During seeding, the cells are reverse-transfected with plasmid vectors that direct the expression of the CFTR G551D mutant and of the YFP reporter. Cells are incubated at 37° C., 5% CO2 for 24 hours so as to allow for sufficient expression of the CFTR protein.
# (§3) The I^−-induced quenching of fluorescence is recorded immediately after injection of I^− for 7 seconds. The capacity of a compound to increase the channel opening is directly correlated with the decrease in fluorescence, and is expressed as (1−(fluorescence after 7 seconds (F)/fluorescence before injection (F0))) and an EC50 can be derived from a (1−F/F0) vs compound concentration plot.
# (§4) Similar YHA assays were developed for other channel gating defective or channel conductance defective CFTR mutants to determine effect of compound on channel activity. Examples of mutants are G178R, G1349D, S549N, R117H, R334W. This assay is also used for additional class I CFTR mutants, including G542X, W1282X; class II mutants including N1303K, and for class III mutants including S1251N; or wild-type CFTR.
# CFTR ΔF508 mutant [1] = target: T2, CFTR ΔF508 mutant (Homo sapiens, UniProt P13569, DEL508-508); assay: YFP-halide influx assay for the CFTR-ΔF508 mutation (96 well, CFBE41o- cells); conditions: compounds of the invention, 96 well, forskolin 10.67 μM, read-out: EC50 measured by YFP-halide influx assay for the CFTR-ΔF508
# T2 construct: expressed in transfected cells; host or cells: CFBE41o- (adenoviral transduction)
# T2 sequence (P13569 with tags, fused parts or gaps DEL508-508): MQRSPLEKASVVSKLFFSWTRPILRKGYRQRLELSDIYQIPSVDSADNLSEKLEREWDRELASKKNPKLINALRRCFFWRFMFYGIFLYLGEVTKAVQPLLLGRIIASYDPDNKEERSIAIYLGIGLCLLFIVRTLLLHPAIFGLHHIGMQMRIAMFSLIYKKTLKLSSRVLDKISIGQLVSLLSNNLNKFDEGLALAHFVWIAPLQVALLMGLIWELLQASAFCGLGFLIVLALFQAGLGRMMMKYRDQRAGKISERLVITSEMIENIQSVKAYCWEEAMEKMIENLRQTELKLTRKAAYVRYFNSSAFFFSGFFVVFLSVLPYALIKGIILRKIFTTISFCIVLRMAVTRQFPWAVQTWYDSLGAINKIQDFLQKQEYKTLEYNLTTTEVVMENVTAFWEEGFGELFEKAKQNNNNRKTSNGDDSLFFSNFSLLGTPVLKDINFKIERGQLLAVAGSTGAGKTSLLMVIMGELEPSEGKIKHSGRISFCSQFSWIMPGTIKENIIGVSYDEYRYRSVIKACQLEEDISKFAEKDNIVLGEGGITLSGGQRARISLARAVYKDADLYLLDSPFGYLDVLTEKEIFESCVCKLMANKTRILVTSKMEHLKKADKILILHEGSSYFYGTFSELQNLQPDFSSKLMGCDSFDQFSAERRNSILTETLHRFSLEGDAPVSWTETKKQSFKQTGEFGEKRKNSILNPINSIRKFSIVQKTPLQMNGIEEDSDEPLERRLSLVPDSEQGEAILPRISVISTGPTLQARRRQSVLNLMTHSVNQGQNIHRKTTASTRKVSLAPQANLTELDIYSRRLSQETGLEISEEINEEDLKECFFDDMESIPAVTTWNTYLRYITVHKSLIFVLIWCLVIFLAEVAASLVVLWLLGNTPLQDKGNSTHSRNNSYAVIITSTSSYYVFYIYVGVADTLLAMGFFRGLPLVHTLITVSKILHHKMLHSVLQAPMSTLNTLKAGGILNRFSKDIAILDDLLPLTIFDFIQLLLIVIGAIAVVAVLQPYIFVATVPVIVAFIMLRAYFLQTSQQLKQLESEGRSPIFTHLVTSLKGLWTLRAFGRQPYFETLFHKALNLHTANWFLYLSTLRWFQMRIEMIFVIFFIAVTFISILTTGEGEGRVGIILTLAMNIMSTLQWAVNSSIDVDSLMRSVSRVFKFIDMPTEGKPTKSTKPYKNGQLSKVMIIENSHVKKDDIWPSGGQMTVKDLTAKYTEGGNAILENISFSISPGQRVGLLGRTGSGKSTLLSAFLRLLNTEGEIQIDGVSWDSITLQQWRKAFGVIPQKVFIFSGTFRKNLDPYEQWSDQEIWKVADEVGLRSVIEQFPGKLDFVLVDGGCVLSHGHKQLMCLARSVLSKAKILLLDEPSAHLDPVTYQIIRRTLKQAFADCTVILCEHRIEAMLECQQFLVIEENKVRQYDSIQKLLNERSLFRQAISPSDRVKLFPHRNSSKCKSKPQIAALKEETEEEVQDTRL
# Summary of the method: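 CFBE41o- cells were adenovirally transduced with CFTR ΔF508 and the halide-sensitive YFP H148Q/I152L. They were then corrected either at 27 °C for 24 h or with a CFTR modulator for 24 h at 37 °C. After iodide injection, YFP quenching over 7 s was expressed as 1−F/F0, and EC50 was derived from the concentration–response plot.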
# CFTR-G1349D = target: T3, CFTR-G1349D (Homo sapiens, UniProt P13569, G1349D); assay: YFP-halide influx assay for the CFTR-G1349D; conditions: CFTR-G1349D mutant; read-out: EC50 measured by YFP-halide influx assay for the CFTR-G1349D
# T3 construct: expressed in transfected cells
# T3 sequence (P13569 whole entry G1349D): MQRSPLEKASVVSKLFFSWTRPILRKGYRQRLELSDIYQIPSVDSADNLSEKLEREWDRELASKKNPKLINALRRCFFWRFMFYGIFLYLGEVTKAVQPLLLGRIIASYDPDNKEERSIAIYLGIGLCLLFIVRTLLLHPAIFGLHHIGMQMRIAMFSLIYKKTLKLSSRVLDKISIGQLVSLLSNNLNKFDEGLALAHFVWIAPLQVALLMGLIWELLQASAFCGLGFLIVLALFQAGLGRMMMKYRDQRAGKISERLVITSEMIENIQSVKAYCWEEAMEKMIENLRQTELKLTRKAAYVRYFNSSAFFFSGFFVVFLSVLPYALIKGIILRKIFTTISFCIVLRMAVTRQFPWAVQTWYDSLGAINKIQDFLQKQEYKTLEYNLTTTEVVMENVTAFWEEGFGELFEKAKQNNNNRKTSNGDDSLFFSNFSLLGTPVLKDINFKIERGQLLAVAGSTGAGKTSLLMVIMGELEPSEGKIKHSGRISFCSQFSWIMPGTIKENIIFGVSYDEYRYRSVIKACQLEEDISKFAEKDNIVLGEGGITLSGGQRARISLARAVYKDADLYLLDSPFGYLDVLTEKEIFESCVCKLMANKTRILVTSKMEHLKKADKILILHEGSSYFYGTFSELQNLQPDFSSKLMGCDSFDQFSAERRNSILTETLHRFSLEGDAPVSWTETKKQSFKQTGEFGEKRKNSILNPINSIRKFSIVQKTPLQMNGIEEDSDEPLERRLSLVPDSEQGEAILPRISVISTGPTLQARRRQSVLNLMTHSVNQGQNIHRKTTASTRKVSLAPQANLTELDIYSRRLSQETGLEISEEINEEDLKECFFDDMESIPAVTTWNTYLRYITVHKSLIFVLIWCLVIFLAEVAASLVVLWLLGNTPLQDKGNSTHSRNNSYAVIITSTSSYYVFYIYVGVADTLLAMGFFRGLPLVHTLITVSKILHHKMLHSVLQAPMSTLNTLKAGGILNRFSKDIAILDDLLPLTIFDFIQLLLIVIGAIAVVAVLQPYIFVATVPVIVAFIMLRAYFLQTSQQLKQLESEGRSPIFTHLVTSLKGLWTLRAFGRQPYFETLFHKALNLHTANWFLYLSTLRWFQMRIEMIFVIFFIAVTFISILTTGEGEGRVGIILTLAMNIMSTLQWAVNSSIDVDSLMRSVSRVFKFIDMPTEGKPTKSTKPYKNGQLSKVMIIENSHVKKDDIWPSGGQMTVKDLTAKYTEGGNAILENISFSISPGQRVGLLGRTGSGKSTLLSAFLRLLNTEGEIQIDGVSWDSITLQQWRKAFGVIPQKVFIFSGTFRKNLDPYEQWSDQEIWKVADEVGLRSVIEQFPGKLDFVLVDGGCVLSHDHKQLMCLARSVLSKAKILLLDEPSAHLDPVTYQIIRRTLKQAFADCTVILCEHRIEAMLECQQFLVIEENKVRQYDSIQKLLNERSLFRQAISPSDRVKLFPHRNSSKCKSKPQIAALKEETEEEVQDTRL
# Text: as §1, §2, §3, §4
# CFTR ΔF508 mutant [2] = target: T2, CFTR ΔF508 mutant; assay: YFP-halide influx assay for the CFTR-ΔF508 mutation (384 well, CFBE41o- cells, FDSS/μCell); conditions: forskolin 10.67 μM, fluorescence after 36 seconds, read-out: EC50 measured by YFP-halide influx assay for the CFTR-ΔF508
# Summary of the method: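 CFBE41o- cells were adenovirally transduced with ΔF508 CFTR and the YFP H148Q/I152L reporter. Cells were then held 24 h at 27 °C or treated 24 h at 37 °C with a CFTR modulator. Iodide-induced quench was recorded for 2 min, and EC50 was derived from 1−F/F0 at 36 s against compound concentration.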
# CFTR-G178R = target: T4, CFTR-G178R (Homo sapiens, UniProt P13569, G178R); assay: YFP-halide influx assay for the CFTR-G178R; conditions: read-out: EC50 measured by YFP-halide influx assay for the CFTR-G178R
# T4 construct: expressed in transfected cells
# T4 sequence (P13569 whole entry G178R): as the sequence (P13569 whole entry G1349D) above, with G178R, D1349G counted along it
# Text: as §1, §2, §3, §4
# CFTR-R117H = target: T5, CFTR-R117H (Homo sapiens, UniProt P13569, R117H); assay: YFP-halide influx assay for the CFTR-R117H; conditions: CFTR-R117H mutant; read-out: EC50 measured by YFP-halide influx assay for the CFTR-R117H
# T5 construct: expressed in transfected cells
# T5 sequence (P13569 whole entry R117H): as the sequence (P13569 whole entry G1349D) above, with R117H, D1349G counted along it
# Text: as §1, §2, §3, §4
# CFTR G551D mutant = target: T6, CFTR G551D mutant (Homo sapiens, UniProt P13569, G551D); assay: YFP-halide influx assay for the CFTR-G551D mutation (HEK293 cells); conditions: HEK293 cells expressing CFTR G551D and YFP reporter; forskolin 10.67 μM; read-out: EC50 measured by YFP-halide influx assay for the CFTR-G551D
# T6 construct: expressed in transfected cells; host or cells: HEK293 (reverse transfection with plasmids)
# T6 sequence (P13569 whole entry G551D): as the sequence (P13569 whole entry G1349D) above, with G551D, D1349G counted along it
# Summary of the method: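 HEK293 cells reverse-transfected with CFTR G551D and halide-sensitive YFP, expressed 24 h at 37 °C. Iodide-induced fluorescence quench recorded for 7 s after I^− injection; response as 1−F/F0, EC50 from concentration plot.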
# T1 sequence (P13569 whole entry S549N): as the sequence (P13569 whole entry G1349D) above, with S549N, D1349G counted along it
SMILES,EC50 (CFTR-S549N),EC50 (CFTR ΔF508 mutant [1]),EC50 (CFTR-G1349D),EC50 (CFTR ΔF508 mutant [2]),EC50 (CFTR-G178R),EC50 (CFTR-R117H),EC50 (CFTR G551D mutant)
"CC1(C)Cc2c(sc(NC(=O)C3(CO)CCC3)c2C(N)=O)C(C)(C)O1 [Compound 40, 2-(1-(hydroxymethyl)cyclobutanecarboxamido)-5,5,7,7-tetramethyl-5,7-dihydro-4H-thieno[2,3-c]pyran-3-carboxamide]",1930 nM,32 nM,1910 nM,35.6 nM,> 3330 nM,2900 nM,–
"CC1(C)Cc2c(sc(NC(=O)c3n[nH]cc3C3=CCOCC3)c2C(N)=O)C(C)(C)O1 [Compound 45, N-(3-carbamoyl-5,5,7,7-tetramethyl-4H-thieno[2,3-c]pyran-2-yl)-4-(3,6-dihydro-2H-pyran-4-yl)-1H-pyrazole-3-carboxamide]",1520 nM,–,325 nM,29.6 nM,368 nM,1200 nM,1140 nM
"COCc1[nH]nc(C(=O)Nc2sc3c(c2C(N)=O)CC(C)(C)OC3(C)C)c1Cl [Compound 50, N-(3-carbamoyl-5,5,7,7-tetramethyl-4H-thieno[2,3-c]pyran-2-yl)-4-chloro-5-(methoxymethyl)-1H-pyrazole-3-carboxamide]",105 nM,–,70.5 nM,10.6 nM,47.4 nM,76.3 nM,288 nM
"COCCOc1cc(C(=O)Nc2sc3c(c2C(N)=O)CC(C)(C)OC3(C)C)n[nH]1 [Compound 55, 5-(2-Methoxy-ethoxy)-1H-pyrazole-3-carboxylic acid (3-carbamoyl-5,5,7,7-tetramethyl-4,7-dihydro-5H-thieno[2,3-c]pyran-2-yl)-amide]",108 nM,–,74 nM,24.5 nM,58.3 nM,38.9 nM,600 nM
"CCCc1c[nH]nc1C(=O)Nc1sc2c(c1C(N)=O)CC(C)(C)OC2(C)C [Compound 71, N-(3-carbamoyl-5,5,7,7-tetramethyl-4H-thieno[2,3-c]pyran-2-yl)-4-propyl-1H-pyrazole-3-carboxamide]",196 nM,–,97.7 nM,14.4 nM,89.3 nM,116 nM,1170 nM
"CCOCCc1c[nH]nc1C(=O)Nc1sc2c(c1C(N)=O)CC(C)(C)OC2(C)C [Compound 72, N-(3-carbamoyl-5,5,7,7-tetramethyl-4H-thieno[2,3-c]pyran-2-yl)-4-(2-ethoxyethyl)-1H-pyrazole-3-carboxamide]",122 nM,–,64 nM,17.9 nM,31.4 nM,147 nM,368 nM
"CC1(C)Cc2c(sc(NC(=O)c3n[nH]cc3C3=COCCO3)c2C(N)=O)C(C)(C)O1 [Compound 94, N-(3-carbamoyl-5,5,7,7-tetramethyl-4H-thieno[2,3-c]pyran-2-yl)-4-(2,3-dihydro-1,4-dioxin-5-yl)-1H-pyrazole-3-carboxamide]",345 nM,–,672 nM,30.1 nM,67.6 nM,147 nM,541 nM
"CC(C)OCCOc1c[nH]nc1C(=O)Nc1sc2c(c1C(N)=O)CC(C)(C)OC2(C)C [Compound 101, N-(3-carbamoyl-5,5,7,7-tetramethyl-4H-thieno[2,3-c]pyran-2-yl)-4-(2-isopropoxyethoxy)-1H-pyrazole-3-carboxamide]",947 nM,–,888 nM,26.8 nM,347 nM,1120 nM,1360 nM
"CC1(C)Cc2c(sc(NC(=O)c3ccn(CC(F)(F)F)n3)c2C(N)=O)C(C)(C)O1 [Compound 121, N-(3-carbamoyl-5,5,7,7-tetramethyl-4H-thieno[2,3-c]pyran-2-yl)-1-(2,2,2-trifluoroethyl)pyrazole-3-carboxamide]",599 nM,–,536 nM,18.7 nM,466 nM,724 nM,1000 nM
"CC1(C)Cc2c(sc(NC(=O)c3ccnn3CC(F)(F)F)c2C(N)=O)C(C)(C)O1 [Compound 151, N-(3-carbamoyl-5,5,7,7-tetramethyl-4H-thieno[2,3-c]pyran-2-yl)-2-(2,2,2-trifluoroethyl)pyrazole-3-carboxamide]",3330 nM,–,464 nM,20.1 nM,221 nM,780 nM,971 nM

# The remaining lines, values ahead:
EC50 (CFTR-S549N),EC50 (CFTR ΔF508 mutant [1]),EC50 (CFTR-G1349D),EC50 (CFTR ΔF508 mutant [2]),EC50 (CFTR-G178R),EC50 (CFTR-R117H),EC50 (CFTR G551D mutant),SMILES
690 nM,5 nM,517 nM,5.99 nM,96.8 nM,64.3 nM,–,"CC1(C)Cc2c(sc(NC(=O)C(O)C(C)(C)C)c2C(N)=O)C(C)(C)O1 (stereo not drawn) [Compound 38, 2-(2-hydroxy-3,3-dimethylbutanamido)-5,5,7,7-tetramethyl-5,7-dihydro-4H-thieno[2,3-c]pyran-3-carboxamide]"
1100 nM,6 nM,1340 nM,4.51 nM,1360 nM,145 nM,–,"CC(C)C(O)C(=O)Nc1sc2c(c1C(N)=O)CC(C)(C)OC2(C)C (stereo not drawn) [Compound 39, 2-(2-hydroxy-3-methylbutanamido)-5,5,7,7-tetramethyl-5,7-dihydro-4H-thieno[2,3-c]pyran-3-carboxamide]"
140 nM,–,58.4 nM,2.84 nM,19 nM,24.4 nM,1430 nM,"CC(C)CC(O)C(=O)Nc1sc2c(c1C(N)=O)CC(C)(C)OC2(C)C (stereo not drawn) [Compound 46, 2-[(2-hydroxy-4-methyl-pentanoyl)amino]-5,5,7,7-tetramethyl-4H-thieno[2,3-c]pyran-3-carboxamide]"
31.5 nM,–,24.4 nM,2.17 nM,14.1 nM,15.3 nM,412 nM,"CC1(C)Cc2c(sc(NC(=O)[C@@H](O)C(C)(C)C)c2C(N)=O)C(C)(C)O1 [Compound 76, 2-[[(2S)-2-hydroxy-3,3-dimethyl-butanoyl]amino]-5,5,7,7-tetramethyl-4H-thieno[2,3-c]pyran-3-carboxamide]"
1450 nM,–,1310 nM,127 nM,2210 nM,1010 nM,7780 nM,"CC1(C)Cc2c(sc(NC(=O)[C@H](O)C(C)(C)C)c2C(N)=O)C(C)(C)O1 [Compound 77, 2-[[(2R)-2-hydroxy-3,3-dimethyl-butanoyl]amino]-5,5,7,7-tetramethyl-4H-thieno[2,3-c]pyran-3-carboxamide]"
73 nM,–,54.7 nM,2.62 nM,41.5 nM,26.7 nM,5110 nM,"CC1(C)Cc2c(sc(NC(=O)[C@@H](O)CC3CC3)c2C(N)=O)C(C)(C)O1 [Compound 98, 2-[[(2S)-3-cyclopropyl-2-hydroxy-propanoyl]amino]-5,5,7,7-tetramethyl-4H-thieno[2,3-c]pyran-3-carboxamide]"
21.8 nM,–,200 nM,0.54 nM,26 nM,11.7 nM,981 nM,"CC(C)(C)CC(O)C(=O)Nc1sc2c(c1C(N)=O)CC(C)(C)OC2(C)C (stereo not drawn) [Compound 106, 2-[(2-hydroxy-4,4-dimethyl-pentanoyl)amino]-5,5,7,7-tetramethyl-4H-thieno[2,3-c]pyran-3-carboxamide]"

# Reference: patent US9351955B2, “Compounds and pharmaceutical compositions thereof for the treatment of cystic fibrosis” (Galapagos NV, priority 2013, dated 2016)
